Molecules are shown by their SMILES. “And” between values parts separate entries of the source, which are not always exact repeats. Equal entries are not always repeated. Where two headings read alike, the source gives them in different places. Marks after values point to notes of the source that are not given here.

The text below walks through data of PMC8344235, “α-Amylase and dipeptidyl peptidase-4 (DPP-4) inhibitory effects of Melicope latifolia bark extracts and identification of bioactive constituents using in vitro and in silico approaches” (Pharmaceutical Biology, 2021).

Assay [1] in a line: DPPH free radical scavenging assay. The settings on record: for IC50 / DPPH IC50: mean ± SD of triplicates; for DPPH IC50: ND = IC50 not detected at highest tested concentration (1 mg/mL). As for the experimental part: Free radical scavenging ability of M. latifolia fractions and compounds were determined using stable free radical 2,2-diphenyl-1-picrylhydrazyl (DPPH) following the method described by Tan et al. ([2019]). The extracts (170 μL) at varying concentrations ([…]) were mixed with 30 μL of methanolic DPPH solution (300 μM) in a 96-well microplate. The mixtures were then incubated at room temperature for 30 min in the dark, followed by an absorbance measurement at 517 nm. For the negative control well, the extract was replaced by methanol. Ascorbic acid, α-tocopherol, and BHT were used as standards.
For orientation: Loss of DPPH colour is used to gauge radical scavenging.

A short description of assay [2]: β-Carotene bleaching assay. Particulars: samples 1 mg/mL, 50 °C, 2 h. How it is done:
The antioxidant capacity of M. latifolia fractions and isolated constituents by β-carotene bleaching was performed according to a method described by Kassim et al. ([2019]). In brief, 210 µL of β-carotene solution (1 mg/mL in chloroform) was added to Tween 20 (42 µL) and linoleic acid (5 µL) in a round bottom flask. The chloroform was removed by rotary evaporation prior to the addition of […] of distilled water and shaken to form an emulsion. The emulsion (200 µL) was then transferred into each well of a 96-well microplate that contains 50 µL of samples (1 mg/mL). The mixture was incubated at 50 °C in the dark for 2 h, and its absorbance was measured at 470 nm at the initial time (t = 0) and every subsequent 30 min for 2 h (t = 2). Ascorbic acid, α-tocopherol, and BHT were used as positive controls. Methanol was used to replace the test samples as a negative control. The antioxidant activity (AA) was calculated according to the formula (5): (5) AA% = 1 − [(At=0 – At=2)/(Ac=0 – Ac=2)] × 100 whereby At=0 and At=2 are the absorbance of the samples measured at 0 and 2 h, respectively; Ac=0 and Ac=2 are the absorbance of negative control measured at 0 and 2 h, respectively.

For assay [3], the target named is T1, human-recombinant DPP-4 enzyme (Homo sapiens, UniProt P27487).
T1 construct: purchased Cayman Chemical (Ann Arbor, MI)
Nature of the assay: DPP-4 inhibitory assay (fluorescence screening kit). Format: biochemical. How it is done:
DPP-4 inhibitor screening kit (Cayman Chemical, Ann Arbor, MI) was used to evaluate the DPP-4 inhibitory activity of the test samples based on a fluorescence assay method. Briefly, samples (10 μL) with different concentrations in DMSO were each pipetted into a 96-well plate followed by the addition of diluted assay buffer (30 μL), diluted human-recombinant DPP-4 enzyme solution (10 μL), and diluted fluorogenic substrate, Gly-Pro-aminomethylcoumarin (AMC) (50 μL). […] The 96-well plate was shaken and incubated for 30 min at 37 °C.

Where [4] appears, read: highest tested concentration, read-out: DPP-4 IC50 not detected at the highest concentration.

T1 sequence (P27487 whole entry): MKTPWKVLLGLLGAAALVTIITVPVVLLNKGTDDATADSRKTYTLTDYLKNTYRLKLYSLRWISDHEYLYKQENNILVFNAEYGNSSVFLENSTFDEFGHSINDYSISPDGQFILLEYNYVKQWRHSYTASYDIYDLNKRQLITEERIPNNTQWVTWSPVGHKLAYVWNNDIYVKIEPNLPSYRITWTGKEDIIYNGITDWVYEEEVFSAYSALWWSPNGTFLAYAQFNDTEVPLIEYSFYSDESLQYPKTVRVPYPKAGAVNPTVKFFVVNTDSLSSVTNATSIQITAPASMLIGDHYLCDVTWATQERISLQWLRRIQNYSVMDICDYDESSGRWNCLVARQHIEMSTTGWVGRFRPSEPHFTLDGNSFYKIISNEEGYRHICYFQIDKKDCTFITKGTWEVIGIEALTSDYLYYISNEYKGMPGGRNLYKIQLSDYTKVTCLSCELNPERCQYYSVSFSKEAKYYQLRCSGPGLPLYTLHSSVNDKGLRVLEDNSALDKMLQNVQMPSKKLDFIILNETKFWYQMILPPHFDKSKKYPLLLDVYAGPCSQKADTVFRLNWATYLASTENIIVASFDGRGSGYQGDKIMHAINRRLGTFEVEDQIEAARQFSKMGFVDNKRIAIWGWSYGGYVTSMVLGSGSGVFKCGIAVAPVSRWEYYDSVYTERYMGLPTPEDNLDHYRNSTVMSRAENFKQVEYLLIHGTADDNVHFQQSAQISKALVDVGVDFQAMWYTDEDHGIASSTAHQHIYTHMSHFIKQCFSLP

As for `O=C1O[C@H]([C@@H](O)CO)C(O)=C1O` [Ascorbic acid], in assay [1], the IC50 is 85.2 µM and the “DPPH IC50” value amounted to 15.00 ± 0.01 µg/mL. In addition, in assay [2], the “β-Carotene bleaching activity AA (%)” value is recorded as 35.23 ± 0.02^g %.
With `Cc1cc(C(C)(C)C)c(O)c(C(C)(C)C)c1` [BHT, butylated hydroxytoluene], in assay [1], the IC50 is 44.9 µM and the “DPPH IC50” value came to 9.90 ± 0.03 µg/mL. Further, the “β-Carotene bleaching activity AA (%)” value in assay [2] was 76.42% and 76.42 ± 0.02^c %.
For `CC[C@H](CC[C@@H](C)[C@H]1CC[C@H]2[C@@H]3CC=C4C[C@@H](O)CC[C@]4(C)[C@H]3CC[C@]12C)C(C)C` [Compound 1, β-sitosterol], in assay [3] (setting [4]), the IC50 is more than 2410 µM.
Take `COc1c(OC)c2c(OC)c3ccoc3cc2oc1=O` [Compound 2, halfordin]: the figures for the IC50 in assay [1] and in assay [3] (setting [4]) were 6430 µM and more than 3620 µM, respectively. The “DPPH IC50” value in assay [1] turned out to be 1776.01 ± 0.16 µg/mL. For the same molecule, in assay [2], the “β-Carotene bleaching activity AA (%)” value is 88.48% and 88.48 ± 0.02^b %.
Turning to `COC(=O)/C=C/c1ccc(O)cc1` [Compound 3, methyl p-coumarate], the “DPPH IC50 not detected at the highest concentration” value in assay [1] (highest tested concentration) is more than 1000 µg/mL. Besides, the “β-Carotene bleaching activity AA (%)” value in assay [2] is on record as 1.08 ± 0.02^g %. Further, the IC50 in assay [3] (mean ± SD of triplicates, ND = IC50 not detected at highest tested concentration (1 mg/mL), read-out: DPP-4 IC50 (converted)) was 911 µM; in assay [3] (mean ± SD of triplicates, read-out: DPP-4 IC50 (converted)), 911 µM.
With `O=C(O)c1ccc(O)c(O)c1` [Compound 4, protocatechuic acid], in assay [3] (setting [4]), the IC50 is more than 6490 µM.
On to `Cc1c(C)c2c(c(C)c1O)CC[C@@](C)(CCC[C@H](C)CCC[C@H](C)CCCC(C)C)O2` [α-Tocopherol], for which, in assay [1], the IC50 is 43.6 µM and the “DPPH IC50” value worked out at 18.79 ± 0.01 µg/mL. The “β-Carotene bleaching activity AA (%)” value in assay [2] is on record as 98.01 ± 0.02^a %.
